Experimental data from article PMC11369081, “Molecular mechanism of prolactin-releasing peptide recognition and signaling via its G protein-coupled receptor” (Cell Discovery, 2024).
Peptide text beside a SMILES is read from it.

Key:
Assay type in all cases: cell-based
PrRPR V145A [1] = target: T1, PrRPR V145A (Homo sapiens, UniProt P49683, V145A); assay: BRET2 Gi dissociation, V145A; conditions: V145A (3.36), Gi-coupling, AD293 cells; mean ± S.E.M., n = 3; P 0.9852 vs WT; read-out: BRET2 pEC50 (converted)
T1 construct: expressed in transfected cells; host or cells: AD293 cells
T1 sequence (P49683 whole entry V145A): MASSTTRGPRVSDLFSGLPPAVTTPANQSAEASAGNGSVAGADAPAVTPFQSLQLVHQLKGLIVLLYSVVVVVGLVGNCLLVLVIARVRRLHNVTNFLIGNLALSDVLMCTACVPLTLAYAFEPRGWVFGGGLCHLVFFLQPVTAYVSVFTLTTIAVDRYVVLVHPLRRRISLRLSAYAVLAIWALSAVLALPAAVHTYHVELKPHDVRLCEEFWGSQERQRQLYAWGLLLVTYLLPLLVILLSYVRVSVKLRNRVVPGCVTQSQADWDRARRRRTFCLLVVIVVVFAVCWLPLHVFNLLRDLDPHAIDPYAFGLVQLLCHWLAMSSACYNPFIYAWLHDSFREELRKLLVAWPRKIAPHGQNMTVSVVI
Protocol: (§1) AD293 cells (Agilent) were propagated in Dulbecco’s Modified Eagle Medium (DMEM, Thermo Fisher Scientific), enriched with 10% fetal bovine serum (FBS, Thermo Fisher Scientific), and maintained at 37 °C in a 5% CO2 environment. Cells were then seeded in 6-well dishes at a density of 130,000–150,000 cells per mL and allowed to incubate overnight. On the next day, cells were transfected with plasmids at a 1:1:1:1 ratio for receptor:Gα-RLuc8:Gβ:Gγ-GFP2[52]. PEI MAX 40 K (BIOHUB) was utilized to form complex with the plasmids at a ratio of 3 µL PEI per µg of plasmids, in OptiMEM (Gibco-Thermo Fisher Scientific) at a concentration of 10 ng plasmids per µL OptiMEM. After 24 h of incubation, the culture was harvested by centrifugation with PBS. The cell suspension was then allocated into a white 384-well plate at a volume of 30 µL per well, followed by the addition of 10 µL of freshly prepared 50 µM coelenterazine 400a (Yeasen). Following a 15-min equilibration period, cells were treated with 10 µL of ligand for an additional 5 min. Plates were subsequently read in a BioTek Synergy H1 microplate reader (BioTek) equipped with 395 nm (RLuc8-coelenterazine 400a) and 510 nm (GFP2) emission filters. BRET2 ratios were calculated as the ratio of the GFP2 emission to RLuc8 emission. Data were normalized to the baseline response of the ligand. […]

PrRPR C113A = target: T2, PrRPR C113A (Homo sapiens, UniProt P49683, C113A); assay: BRET2 Gq dissociation, C113A; conditions: C113A (2.57), Gq-coupling, AD293 cells; mean ± S.E.M., n = 3; P 0.0007 vs WT; read-out: BRET2 pEC50 (converted)
T2 construct: expressed in transfected cells; host or cells: AD293 cells
T2 sequence (P49683 whole entry C113A): as the sequence (P49683 whole entry V145A) above, with C113A, A145V counted along it
Protocol: as §1, with “Following a 15-min equilibration period, cells were treated with 10 µL of ligand for an additional 5 min.” left out, “emission.” for “emission. Data were normalized to the baseline response of the ligand.”
(§2) Supplementary Fig. S4 | Effects of mutations in the ligand-binding pocket and G protein intereface of Gq coupled PrRPR by BRET2 assay. […] BRET2 assay signals were measured after stimulation with PrRP20. […]

PrRPR Y225A = target: T3, PrRPR Y225A (Homo sapiens, UniProt P49683, Y225A); assay: BRET2 Gq dissociation, Y225A; conditions: Y225A (5.38), Gq-coupling, AD293 cells; mean ± S.E.M., n = 3; P <0.0001 vs WT; read-out: BRET2 pEC50 (converted)
T3 construct: Flag; expressed in transfected cells; host or cells: AD293 cells
T3 sequence (P49683 whole entry Y225A): as the sequence (P49683 whole entry V145A) above, with A145V, Y225A counted along it
Protocol: as §1, with “Following a 15-min equilibration period, cells were treated with 10 µL of ligand for an additional 5 min.” left out, “emission.” for “emission. Data were normalized to the baseline response of the ligand.”
as §2

PrRPR H295A = target: T4, PrRPR H295A (Homo sapiens, UniProt P49683, H295A); assay: BRET2 Gi dissociation, H295A; conditions: H295A (6.52), Gi-coupling, AD293 cells; mean ± S.E.M., n = 3; P 0.8032 vs WT; read-out: BRET2 pEC50 (converted)
T4 construct: Flag; expressed in transfected cells; host or cells: AD293 cells
T4 sequence (P49683 whole entry H295A): as the sequence (P49683 whole entry V145A) above, with A145V, H295A counted along it
Protocol: as §1

PrRPR P142A = target: T5, PrRPR P142A (Homo sapiens, UniProt P49683, P142A); assay: BRET2 Gi dissociation, P142A; conditions: P142A (3.33), Gi-coupling, AD293 cells; mean ± S.E.M., n = 3; P 0.0035 vs WT; read-out: BRET2 pEC50 (converted)
T5 construct: expressed in transfected cells; host or cells: AD293 cells
T5 sequence (P49683 whole entry P142A): as the sequence (P49683 whole entry V145A) above, with P142A, A145V counted along it
Protocol: as §1

PrRPR N298A = target: T6, PrRPR N298A (Homo sapiens, UniProt P49683, N298A); assay: BRET2 Gq dissociation, N298A; conditions: N298A (6.55), Gq-coupling, AD293 cells; mean ± S.E.M., n = 3; P 0.0042 vs WT; read-out: BRET2 pEC50 (converted)
T6 construct: Flag; expressed in transfected cells; host or cells: AD293 cells
T6 sequence (P49683 whole entry N298A): as the sequence (P49683 whole entry V145A) above, with A145V, N298A counted along it
Protocol: as §1, with “Following a 15-min equilibration period, cells were treated with 10 µL of ligand for an additional 5 min.” left out, “emission.” for “emission. Data were normalized to the baseline response of the ligand.”
as §2

PrRPR Y120A = target: T7, PrRPR Y120A (Homo sapiens, UniProt P49683, Y120A); assay: BRET2 Gq dissociation, Y120A; conditions: Y120A (2.64), Gq-coupling, AD293 cells; mean ± S.E.M., n = 3; P <0.0001 vs WT; read-out: BRET2 pEC50 (converted)
T7 construct: expressed in transfected cells; host or cells: AD293 cells
T7 sequence (P49683 whole entry Y120A): as the sequence (P49683 whole entry V145A) above, with Y120A, A145V counted along it
Protocol: as §1, with “Following a 15-min equilibration period, cells were treated with 10 µL of ligand for an additional 5 min.” left out, “emission.” for “emission. Data were normalized to the baseline response of the ligand.”
as §2

PrRPR V145A [2] = target: T1, PrRPR V145A; assay: BRET2 Gq dissociation, V145A; conditions: V145A (3.36), Gq-coupling, AD293 cells; mean ± S.E.M., n = 3; P <0.0001 vs WT; read-out: BRET2 pEC50 (converted)
Protocol: as §1, with “Following a 15-min equilibration period, cells were treated with 10 µL of ligand for an additional 5 min.” left out, “emission.” for “emission. Data were normalized to the baseline response of the ligand.”
as §2

PrRPR T117A = target: T8, PrRPR T117A (Homo sapiens, UniProt P49683, T117A); assay: BRET2 Gq dissociation, T117A; conditions: T117A (2.61), Gq-coupling, AD293 cells; mean ± S.E.M., n = 3; P <0.0001 vs WT; read-out: BRET2 pEC50 (converted)
T8 construct: expressed in transfected cells; host or cells: AD293 cells
T8 sequence (P49683 whole entry T117A): as the sequence (P49683 whole entry V145A) above, with T117A, A145V counted along it
Protocol: as §1, with “Following a 15-min equilibration period, cells were treated with 10 µL of ligand for an additional 5 min.” left out, “emission.” for “emission. Data were normalized to the baseline response of the ligand.”
as §2

PrRPR WT = target: T9, PrRPR WT (Homo sapiens, UniProt P49683); assay: BRET2 Gi dissociation, WT; conditions: Gi-coupling, AD293 cells
T9 construct: expressed in transfected cells; host or cells: AD293 cells
T9 sequence (P49683 1-370): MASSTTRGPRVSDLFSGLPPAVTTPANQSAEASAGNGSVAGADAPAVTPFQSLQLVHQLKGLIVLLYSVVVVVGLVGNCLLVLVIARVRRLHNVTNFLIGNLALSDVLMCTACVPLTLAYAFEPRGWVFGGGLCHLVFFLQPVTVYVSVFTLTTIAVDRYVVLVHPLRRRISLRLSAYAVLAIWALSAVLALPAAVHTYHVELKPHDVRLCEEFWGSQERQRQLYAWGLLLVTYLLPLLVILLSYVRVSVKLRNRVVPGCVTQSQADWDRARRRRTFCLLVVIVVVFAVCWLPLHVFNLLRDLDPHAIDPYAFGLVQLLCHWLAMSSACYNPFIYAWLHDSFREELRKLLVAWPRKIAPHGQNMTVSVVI
Protocol: as §1

**Q.** With CC[C@H](C)[C@H](NC(=O)CNC(=O)[C@H](CCCNC(=N)N)NC(=O)[C@H](CO)NC(=O)[C@H](C)NC(=O)[C@H](Cc1ccc(O)cc1)NC(=O)[C@H](Cc1c[nH]c2ccccc12)NC(=O)[C@H](C)NC(=O)[C@@H]1CCCN1C(=O)[C@H](CC(N)=O)NC(=O)[C@@H](NC(=O)[C@H](CC(=O)O)NC(=O)[C@@H]1CCCN1C(=O)[C@@H](N)[C@@H](C)O)[C@@H](C)CC)C(=O)N[C@@H](CCCNC(=N)N)C(=O)N1CCC[C@H]1C(=O)N[C@H](C(=O)NCC(=O)N[C@@H](CCCNC(=N)N)C(=O)N[C@@H](Cc1ccccc1)C(N)=O)C(C)C [PrRP20] (H-TPDINPAWYASRGIRPVGRF-NH2) as the compound, how does the EC50 (PrRPR V145A [1]) read?
**A.** 2.63 nM

**Q.** What about the EC50 (PrRPR C113A) of the same compound?
**A.** 3.39 nM

**Q.** What about the EC50 (PrRPR Y225A) of the same compound?
**A.** 178 nM

**Q.** And the EC50 (PrRPR H295A)?
**A.** 3.02 nM

**Q.** What about the EC50 (PrRPR P142A) of the same compound?
**A.** 6.46 nM

**Q.** And the EC50 (PrRPR N298A)?
**A.** 2.95 nM

**Q.** And the EC50 (PrRPR Y120A)?
**A.** 191 nM

**Q.** What about the EC50 (PrRPR V145A [2]) of the same compound?
**A.** 4.79 nM

**Q.** And the EC50 (PrRPR T117A)?
**A.** 107 nM

**Q.** And the BRET2 span (PrRPR WT; WT (reference for normalisation), n = 3)?
**A.** 100.00 %WT

**Q.** And the EC50 (PrRPR WT; WT, 5 min ligand, mean ± S.E.M., n = 3 (triplicates), read-out: BRET2 pEC50 (converted))?
**A.** 1.86 nM
